Source: patent publication US11401253B2, “16-methyl-oxacyclohexadecan-2-one and 16-methyl-azacyclohexadecan-2-one derivatives as antimicrobial agents” (THE UNIVERSITY OF MONTANA, priority 2017, dated 2022)
In brackets after ≈: the same amount, converted by molar mass. Several values for one entry are separate records, joined by “and”; a condition that tells them apart may be missing. Identical values can stand only once. Like-named read-outs stand apart in the source and are kept apart here.

Tests used:
K. pneumoniae (10031) = test: Antibiotic testing (MIC), gram negative K. pneumoniae; type: cell-based
Method: (§1) None of this collection of compounds were active against Gram-negative bacteria
(§2) Additionally, BPL 76 and derivatives were tested against a panel of gram negative bacteria including K. pneumonia, P. aeruginosa and E. coli (Table 12).

P. aeruginosa = test: Antibiotic testing (MIC), gram negative P. aeruginosa; type: cell-based
Method: as §1, §2

E. coli (25922) = test: Antibiotic testing (MIC), gram negative E. coli; type: cell-based
Method: as §1, §2

MMP-3 = biological target: T1, MMP-3 (Homo sapiens, UniProt P08254); test: MMP-3 enzyme inhibition assay; type: biochemical
T1 construct: purchased BioMol
T1 sequence (P08254 100-477): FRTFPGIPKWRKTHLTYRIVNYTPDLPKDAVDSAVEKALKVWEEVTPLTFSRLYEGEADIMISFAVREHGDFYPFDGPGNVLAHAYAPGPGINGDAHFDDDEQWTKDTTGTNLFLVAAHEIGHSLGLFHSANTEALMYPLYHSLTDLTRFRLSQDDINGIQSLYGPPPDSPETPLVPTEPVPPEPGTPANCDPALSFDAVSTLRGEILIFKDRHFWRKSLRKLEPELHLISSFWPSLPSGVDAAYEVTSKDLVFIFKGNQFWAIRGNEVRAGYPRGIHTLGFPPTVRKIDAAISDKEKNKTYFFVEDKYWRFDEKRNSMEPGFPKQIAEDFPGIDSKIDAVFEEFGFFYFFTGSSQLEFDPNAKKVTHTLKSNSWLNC
Method: The two fungi were also co-cultured under controlled conditions. P. fuscum was grown in pure culture in potato dextrose broth (10×400 mL). After 24 h, an agar cube (8 mm^3) impregnated with P. camembertii/clavigerum mycelium was added to each flask and the resulting co-culture was shaken for 6 more days (200 rpm, room temperature). At time of harvest, methanol (50 mL/flask) was added, the mycelia were removed by gravity filtration and the broth was extracted with chloroform (3×2 L). The chloroform was removed in vacuo to yield 663 mg of crude extract. The crude extract was verified to be active in the MMP-3, caspase-1 and caspase-3 enzyme inhibition assays. Enzyme inhibitory activity was determined using specific BioMol enzyme inhibition assay kits for drug discovery as described in Stierle, A; Stierle, D. The Berkeleylactones, Antibiotic Macrolides from Fungal Coculture. J. Nat. Prod. 80, 4, 1150-1160.

[1] = test system: Staphylococcus aureus (13709); test: Antibiotic testing (MIC), S. aureus 13709; type: cell-based; conditions: growth inhibition ≥90% relative to drug-free controls, read-out: minimum inhibitory concentration, Staphylococcus aureus (13709)
Streptococcus pyogenes = test: Antibiotic testing (MIC), Streptococcus pyogenes; type: cell-based; conditions: growth inhibition ≥90%, read-out: minimum inhibitory concentration, Streptococcus pyogenes
Candida glabrata = test: Antibiotic testing (MIC), Candida glabrata; type: cell-based; conditions: Nakaseomyces glabratus; growth inhibition ≥90%; read-out: minimum inhibitory concentration, Candida glabrata
Bacillus subtilis = test: Antibiotic testing (MIC), Bacillus subtilis; type: cell-based; conditions: growth inhibition ≥90%, read-out: minimum inhibitory concentration, Bacillus subtilis
C. albicans = test: Antibiotic testing (MIC), C. albicans; type: cell-based; conditions: Candida albicans; growth inhibition ≥90%; read-out: minimum inhibitory concentration, C. albicans
B. anthracis = test: microbe, parasite or virus in culture; type: cell-based; conditions: Bacillus anthracis, read-out: minimum inhibitory concentration, B. anthracis
S. aureus CAIRD116 = test: Antibiotic testing, methicillin-resistant S. aureus CAIRD116; type: cell-based; conditions: methicillin-resistant strain; for MIC: Staphylococcus aureus, CAIRD116
Description: (§3) Both the methyl ester and the diacetate derivatives of BPL 76 slightly less but still very strong activity against the same four MRSA strains (Table 11). The activities of compounds BPL 76 and BPL 81 were compared to several known antibiotics against three methicillin-resistant strains of S. aureus [FIG. 6, comparative data provided by Hartford Hospital, Center for Anti-Infective Research and Development (CAIRD)].

S. aureus CAIRD142 = test: Antibiotic testing, methicillin-resistant S. aureus CAIRD142; type: cell-based; conditions: methicillin-resistant strain; for MIC: Staphylococcus aureus, CAIRD142
Description: as §3

S. aureus CAIRD148 = test: Antibiotic testing, methicillin-resistant S. aureus CAIRD148; type: cell-based; conditions: methicillin-resistant strain; for MIC: Staphylococcus aureus, CAIRD148
Description: as §3

S. aureus (NE277) = test: Antibiotic testing, methicillin-resistant S. aureus NE277; type: cell-based; conditions: for MIC: Staphylococcus aureus, read-out: antibiotic testing data (MIC), S. aureus (NE277); for antibiotic testing data (MIC), S. aureus (NE277): methicillin-resistant strain
Description: as §3

[2] = test system: non-replicating persistence Mycobacterium tuberculosis (NRP-TB); test: Low oxygen recovery assay (LORA), non-replicating persistence Mtb; type: cell-based; conditions: Mycobacterium tuberculosis; non-replicating persistence, hypoxic conditions; read-out: MIC, LORA
Vero cell = test: Cytotoxicity (MTS), Vero cells; type: cell-based, monkey; conditions: Primates, 72 hours exposure
HepG2 = test: Cytotoxicity (MTS), HepG2 cells; type: cell-based; conditions: Homo sapiens, 72 hours exposure
J774 = test: Cytotoxicity (MTS), J774 cells; type: cell-based, murine; conditions: Mus musculus, 72 hours exposure
[3] = test system: Mycobacterium tuberculosis; test: microbe, parasite or virus in culture; conditions: read-out: MIC, MABA
[4] = Klebsiella pneumoniae; read-out: MIC, K. pneumoniae (10031)
[5] = Pseudomonas aeruginosa; read-out: MIC, P. aeruginosa
[6] = Escherichia coli; read-out: MIC, E. coli (25922)

Row | Compound | MIC (K. pneumoniae (10031); [4]) | MIC (P. aeruginosa; [5]) | MIC (E. coli (25922); [6]) | MIC [1] | MIC (Streptococcus pyogenes) | MIC (Candida glabrata) | MIC (Bacillus subtilis) | MIC (C. albicans) | MIC (B. anthracis) | MIC [2] | IC50 (Vero cell) | IC50 (HepG2) | IC50 (J774) | MIC [3] | also measured
1 | C[C@H]1OC(=O)/C=C/C(=O)[C@@H](OC(=O)CCC(=O)O)CCCCCCCC[C@@H]1O [BPL 77, 4-(((6S,15S,16R,E)-15-hydroxy-16-methyl-2,5-dioxooxacyclohexadec-3-en-6-yl)oxy)-4-oxobutanoic acid] | 1000 µM and 398 µg/mL | > 1000 µM | 500 µM and 199 µg/mL |  |  |  |  |  |  |  |  |  |  |  | activity against K. pneumonia (in words) (K. pneumoniae (10031)): weakly active; activity against E. coli (in words) (E. coli (25922)): weakly active
2 | C[C@@H]1CC(O)CCCCCCC[C@H](OC(=O)CCC(=O)O)C(=O)/C=C/C(=O)O1 (stereo partly drawn) [BPL 78, 4-(((6S,16R,E)-14-hydroxy-16-methyl-2,5-dioxooxacyclohexadec-3-en-6-yl)oxy)-4-oxobutanoic acid] | > 1000 µM | > 1000 µM | > 1000 µM |  |  |  |  |  |  |  |  |  |  |  | MMP-3 inhibition (MMP-3): weaker inhibitors
3 | CC(=O)O[C@H]1CCCCCCCC[C@H](OC(C)=O)[C@H](OC(C)=O)/C=C/C(=O)O[C@@H]1C [BPL 79 Ac, (2R,3S,12S,13R,E)-2-methyl-16-oxooxacyclohexadec-14-ene-3,12,13-triyl triacetate] | > 500 µM | > 500 µM | > 500 µM |  |  |  |  |  |  |  |  |  |  |  | 
4 | C[C@H]1OC(=O)/C=C/[C@@H](O)[C@@H](O)CCCCCCCC[C@@H]1O [BPL 79, (5R,6S,15 S,16R,E)-5,6,15-trihydroxy-16-methyloxacyclohexadec-3-en-2-one] | > 1000 µM | > 1000 µM | > 1000 µM | 19 µg/mL (≈ 63.3 µM) | 150 µg/mL (≈ 499 µM) | > 300 µg/mL | > 300 µg/mL | > 300 µg/mL | 75 µg/mL (≈ 250 µM) |  |  |  |  |  | 
5 | C[C@@H]1CCCCCCCCC[C@H](OC(=O)CCC(=O)O)C(=O)/C=C/C(=O)O1 [BPL 81, 4-(((6S,16R,E)-16-methyl-2,5-dioxooxacyclohexadec-3-en-6-yl)oxy)-4-oxobutanoic acid] | > 250 µM | > 250 µM | > 250 µM | 3 µg/mL (≈ 7.84 µM) | 48 µg/mL (≈ 126 µM) | 48 µg/mL (≈ 126 µM) | 12 µg/mL (≈ 31.4 µM) | 96 µg/mL (≈ 251 µM) | 6 µg/mL (≈ 15.7 µM) | > 100 µg/mL | 55.7 µg/mL (≈ 146 µM) | > 100 µg/mL | 37.2 µg/mL (≈ 97.3 µM) | 47 µg/mL (≈ 123 µM) | MIC (S. aureus CAIRD116): 6 µg/mL (≈ 15.7 µM); antibiotic testing data (MIC), S. aureus CAIRD116 (S. aureus CAIRD116): 16 µM; MIC (S. aureus CAIRD142): 6 µg/mL (≈ 15.7 µM); antibiotic testing data (MIC), S. aureus CAIRD142 (S. aureus CAIRD142): 16 µM; MIC (S. aureus CAIRD148): 6 µg/mL (≈ 15.7 µM); antibiotic testing data (MIC), S. aureus CAIRD148 (S. aureus CAIRD148): 16 µM; MIC (S. aureus (NE277)): 6 µg/mL (≈ 15.7 µM); antibiotic testing data (MIC), S. aureus (NE277) (S. aureus (NE277)): 16 µM
6 | C[C@H]1OC(=O)/C=C/[C@@H](O)[C@@H](OC(=O)CCC(=O)O)CCCCCCCC[C@@H]1O [BPL 86, 4-(((5R,6S,15 S,16R,E)-5,15-dihydroxy-16-methyl-2-oxooxacyclohexadec-3-en-6-yl)oxy)-4-oxobutanoic acid] |  |  |  | 24 µg/mL (≈ 59.9 µM) | > 50 µg/mL | > 50 µg/mL | > 50 µg/mL | > 50 µg/mL | 24 µg/mL (≈ 59.9 µM) |  |  |  |  |  | MIC (S. aureus CAIRD116): 47 µg/mL (≈ 117 µM); antibiotic testing data (MIC), S. aureus CAIRD116 (S. aureus CAIRD116): 125 µM; MIC (S. aureus CAIRD142): 47 µg/mL (≈ 117 µM); antibiotic testing data (MIC), S. aureus CAIRD142 (S. aureus CAIRD142): 125 µM; MIC (S. aureus CAIRD148): 47 µg/mL (≈ 117 µM); antibiotic testing data (MIC), S. aureus CAIRD148 (S. aureus CAIRD148): 125 µM; MIC (S. aureus (NE277)): 47 µg/mL (≈ 117 µM); antibiotic testing data (MIC), S. aureus (NE277) (S. aureus (NE277)): 125 µM; MIC (K. pneumoniae (10031); Klebsiella pneumoniae, read-out: MIC, K. pneumoniae (10031)): > 125 µM; MIC (P. aeruginosa; Pseudomonas aeruginosa, read-out: MIC, P. aeruginosa): > 125 µM; MIC (E. coli (25922); Escherichia coli, read-out: MIC, E. coli (25922)): > 125 µM; MMP-3 inhibition (MMP-3): weaker inhibitors
7 | C[C@@H]1CCCCCCCCCC[C@H](O)/C=C/C(=O)O1 [BPL 94, (5S,16R,E)-5-hydroxy-16-methyloxacyclohexadec-3-en-2-one] |  |  |  | 34 µg/mL (≈ 127 µM) | 67 µg/mL (≈ 250 µM) | > 67 µg/mL | 34 µg/mL (≈ 127 µM) | > 67 µg/mL | 34 µg/mL (≈ 127 µM) | 20 µg/mL (≈ 74.5 µM) | 43.8 µg/mL (≈ 163 µM) | 85.2 µg/mL (≈ 317 µM) | 40.7 µg/mL (≈ 152 µM) | 39 µg/mL (≈ 145 µM) | 
8 | C[C@@H]1CCCCCCCCC[C@H](O)[C@H](O)/C=C/C(=O)O1 [BPL 95, (5R,6S,16R,E)-5,6-dihydroxy-16-methyloxacyclohexadec-3-en-2-one] |  |  |  | 48 µg/mL (≈ 169 µM) | > 96 µg/mL | > 96 µg/mL | 48 µg/mL (≈ 169 µM) | > 96 µg/mL | > 96 µg/mL | 24 µg/mL (≈ 84.4 µM) | 75.6 µg/mL (≈ 266 µM) | > 100 µg/mL | 74.1 µg/mL (≈ 261 µM) | > 100 µg/mL | 
